How the values were obtained:
[1] = molecular target: E3 ubiquitin-protein ligase Mdm2 (Homo sapiens, UniProt Q00987); experiment: Inhibition of MDM2 (unknown origin) (2 to 188) assessed as inhibition of p53-MDM2 interaction by TR-FRET assay
SJSA-1 = experiment: Antiproliferative activity against human SJSA1 cells expressing wild-type p53 after 72 hrs by fluorescence plate reader analysis; assay type: functional, cell-based; conditions: SJSA-1, 72 h
[2] = Antiproliferative activity against p53-deficient human Saos2 cells after 72 hrs by fluorescence plate reader analysis; assay type: functional, cell-based; conditions: SAOS-2, 72 h

Sequence of E3 ubiquitin-protein ligase Mdm2 (Q00987 whole entry): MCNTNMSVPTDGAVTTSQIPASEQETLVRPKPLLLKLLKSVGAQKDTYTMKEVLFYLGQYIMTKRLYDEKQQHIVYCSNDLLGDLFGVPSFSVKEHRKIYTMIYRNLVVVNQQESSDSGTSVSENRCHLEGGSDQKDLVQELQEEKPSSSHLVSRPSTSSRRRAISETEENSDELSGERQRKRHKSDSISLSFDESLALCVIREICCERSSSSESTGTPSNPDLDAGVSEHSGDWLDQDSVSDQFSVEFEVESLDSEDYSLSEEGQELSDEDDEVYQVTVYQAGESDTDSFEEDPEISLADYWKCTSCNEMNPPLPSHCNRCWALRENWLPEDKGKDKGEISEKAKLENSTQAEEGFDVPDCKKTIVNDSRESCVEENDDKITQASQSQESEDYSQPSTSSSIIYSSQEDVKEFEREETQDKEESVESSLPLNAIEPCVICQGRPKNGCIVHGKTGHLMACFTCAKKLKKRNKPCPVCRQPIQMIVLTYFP

Row | SMILES | IC50 [1] [µM] | IC50 (SJSA-1) [µM] | IC50 [2] [µM]
1 | O=C(O)c1nc(-c2ccccc2)n(-c2cccc(Cl)c2)c1-c1cccc(Cl)c1 | 0.12 | – | –
2 | Cc1ccc(Cl)cc1-n1c(-c2ccccc2)nc(C(=O)O)c1-c1cccc(Cl)c1 | – | 16.1 | > 30
3 | O=C(O)c1nc(-c2ccccc2)n(-c2cccc(Cl)c2F)c1-c1cccc(Cl)c1 | – | 12.2 | > 30
4 | Cc1cccc(-c2nc(C(=O)O)c(-c3cccc(Cl)c3)n2-c2cc(Cl)ccc2C)c1 | – | 10.2 | > 30
5 | O=C(O)c1nc(-c2ccccc2)n(-c2cccc(Cl)c2F)c1-c1ccc(F)c(Cl)c1 | – | 14 | > 30
6 | O=C(O)c1nc(C2CCCCC2)n(-c2cccc(Cl)c2F)c1-c1ccc(F)c(Cl)c1 | – | 13.2 | > 30
7 | Fc1ccc(-c2c(-c3nnn[nH]3)nc(C3CCCCC3)n2-c2cccc(Cl)c2F)cc1Cl | – | 4.4 | > 30
8 | Cc1nnc(-c2nc(C3CCCCC3)n(-c3cccc(Cl)c3F)c2-c2ccc(F)c(Cl)c2)o1 | – | 5.9 | > 30

More lines, in order of falling IC50 (SJSA-1), values ahead:

Row | IC50 [1] [µM] | IC50 (SJSA-1) [µM] | SMILES | IC50 [2] [µM]
9 | – | 4.1 | NC(=O)c1nc(C2CCCCC2)n(-c2cccc(Cl)c2F)c1-c1ccc(F)c(Cl)c1 | 29
10 | – | 3.5 | Nc1nnc(-c2nc(C3CCCCC3)n(-c3cccc(Cl)c3F)c2-c2ccc(F)c(Cl)c2)o1 | > 30
11 | – | 2.5 | Nc1nnc(-c2nc(C3CCCCC3)n(-c3c(CC(=O)Nc4ccccc4)ccc(Cl)c3F)c2-c2ccc(F)c(Cl)c2)o1 | 30
12 | – | 1.4 | CNC(=O)Cc1ccc(Cl)c(F)c1-n1c(C2CCCCC2)nc(-c2nnc(N)o2)c1-c1ccc(F)c(Cl)c1 | 24
13 | – | 1.4 | Nc1nnc(-c2nc(C3CCCCC3)n(-c3c(CC(=O)NC4CCCCC4)ccc(Cl)c3F)c2-c2ccc(F)c(Cl)c2)o1 | 28
14 | – | 0.5 | CC(C)(C)NC(=O)Cc1ccc(Cl)c(F)c1-n1c(C2CCCCC2)nc(-c2nnc(N)o2)c1-c1ccc(F)c(Cl)c1 | 23
